For data set [1], the system named is normal human citrated plasma. Nature of the data set: prothrombin time (PT). In kind it is biochemical. The method, then:
The influence of the various peptide formulations used in the present invention on established coagulation-based assays was determined. The activated partial thromboplastin time (APTT) is performed by mixing 0.05 ml normal human citrated plasma with 0.05 ml activated partial thromboplastin reagent purchased from Organon Teknika, Research Triangle Park, NC in the absence or presence of a peptide inhibitor. After incubation for 5 min at 37° C., the mixture is recalcified with 0.05 ml of 30 mM calcium chloride and the time to clot formation is measured in an Amelung KC4A instrument (Sigma Chemical Corp, St. Louis, Mo.) (Hasan et al. Thrombosis and Haemostasis. 82, 1182-1187 (1999)). The prothrombin time (PT) is performed by mixing 0.05 ml normal human citrated plasma with 0.05 ml Simplastin (Organon Teknika, Research Triangle Park, NC) followed by incubation for 3 min at 37° C. in the absence or presence of a peptide inhibitor. At the addition of 0.05 ml of 30 mM calcium chloride, the time to clot formation is measured in an KC4A instrument (Sigma Chemical Corp, St. Louis, Mo.) (Hasan et al. Thrombosis and Haemostasis. 82, 1182-1187 (1999)). The thrombin clotting time (TCT) is performed by adding 0.1 ml normal human citrated plasma in the absence or presence of a peptide inhibitor and 0.05 ml of a α-thrombin solution such that the final concentration of the thrombin in the entire mixture was 1 nM. Upon addition of the thrombin, the time to clot formation is measured in an KC4A instrument (Sigma Chemical Corp, St. Louis, Mo.).

The next data set relates to C57BL6 mice. Nature of the data set: Rose Bengal model for arterial thrombosis, time to carotid artery occlusion. The note with it: 0.2 to 3.22 mg/kg IP. It counts as in vivo, mouse. From the text: C57BL6 mice 6 to 16 weeks of age were anesthetized by intraperitoneal injection with sodium pentobarbital and placed in the supine position on a dissecting microscope (Nikon SMZ-2T, Mager Scientific, Inc., Dexter, Mich.). A midline surgical incision was made to expose the right common carotid artery and a Doppler flow probe (Model 0.5 VB, Transonic Systems, Ithaca, N.Y.) is placed under the vessel. The probe was connected to a flowmeter (Transonic Model T106) and was interpreted with a computerized data acquisition program (Windaq, DATAQ Instruments, Arkron, Ohio). Rose Bengal (4,5,6,7-tetrachloro-3′,6-dihydroxy-2,4,5,7-tetraiodospiro(isobenzofuran-1(3H), 9 [9H] xanthan)-3-1 dipotassium salt) (Fisher Scientific, Fair Lawn, N.J.) at 50 mg/kg in 0.9% saline) was then injected into the tail vein in a 0.12 ml volume (Eitzman et al., Blood 95, 577 (2000)). After injection into the tail vein, a green laser light (Melles Griot, Carlsbad, Calif.) at a wavelength of 540 nm was applied 6 cm from the carotid artery. Flow is monitored continuously from the onset of injury. The time to occlusion was determined only after the vessel remained closed with a cessation of blood flow for 20 min. […] These investigations indicate that these compounds are able to prevent thrombosis in the whole animal in vivo.

Data set [2] in a line: stability testing in intestinal perfusate. In kind it is in vitro ADME. The note with it: male, Sprague Dawley, rat, intestinal (jejunal) perfusate, pH 6.5, rat. The method, then: Stability testing of the various compounds was performed in buffer, intestinal perfusate, and an intestinal homogenate preparation to assess the potential oral availability of these compounds. Initial studies prepared the tissue for stability studies. The buffer used in stability testing is 10 mM MES (pH 6.5) containing 135 mM NaCl, and 5 mM KCl. To collect intestinal perfusate from rats, male Sprague Dawley rats, 8 to 10 weeks old, weighing 250 to 350 g were fasted 15 to 18 hours with water given ad libitum. Anesthesia was administered by intramuscular injection of pentobarbital/ketamine (40 mg/kg and 80 mg/kg, respectively). The rats were placed on a warming pad under a surgical lamp to maintain body temperature and jejunal intestinal segments were exposed through a midline, abdominal incision. Approximately 20 cm segment of the jejunum (2 to 4 cm distal to the ligament of Treitz) was cannulated and the intestinal segments were perfused with 10 mM MES (pH 6.5) containing 135 mM NaCl, and 5 mM KCl at a flow-rate of 0.5 ml/min at 37° C. using a constant infusion pump (Harvard Apparatus, South Natick, Mass.). The collected perfusate was stored at −80° C. until use for ex vivo stability studies. After collection, the perfused intestinal segments were flushed with ice-cold 0.15 M KCl solution and the animal was euthanized and the jejunal intestinal segment detached. The inner intestinal tissue layers are scraped out and homogenized in MES buffer (pH 6.5) in a ratio of 1 part of intestinal tissue to 5 parts buffer. Total protein content of the perfusate and the homogenate were determined using a Biorad protein assay kit. The intestinal homogenate samples were used immediately or rapidly frozen at −80° C. until stability analysis.
The actual stability testing protocol is as follows: A 0.1 ml aliquot of the synthetic peptide solution (1 mg/ml) was added to 0.9 ml of MES buffer, pH 6.5, intestinal perfusate, or intestinal homogenate at 37° C. Samples were mixed by vortexing and 100 microliter aliquots were removed over a 60 to 90 minute period for analysis of breakdown products. The 100 microliter sample aliquots were diluted 10 fold with water and subjected to solid phase extraction using a Waters Oasis HLB column. Briefly, the columns were preconditioned by passing 1 ml of MeOH and 1 ml of water over the column, and 1 ml of sample was added to the column. The column was washed with 5% methanol:95% water solution to remove proteins and salts, then eluted with 1 ml of 100% methanol. The methanol was removed by vacuum, and the sample was reconstituted in mobile phase for LC/MS/MS analysis.
LC/MS/MS analysis was performed on a HP1100 HPLC (Hewlett Packard) interfaced with a Quattro II MS/MS detector (Waters/Micromass). For the HPLC separation, a 10 μL aliquot of sample in a mobile phase consisting of an equal volume mixture of acetonitrile/water containing 0.5% formic acid was injected onto a 150 mm×2.2 mm, 5 μm C8 column (Higgins Analytical Inc) and developed at a flow rate of 0.2 ml/min for 5 minutes. The MS detector was used in single ion recording mode at a cone voltage of 50 Volts.

“Also recorded” adds a separate entry of the source. Where two headings read alike, the source gives them in different places. Where a SMILES comes first, the peptide text is derived from it.

Take `Cc1ccc(C[C@H](NC(=O)[C@@H](C)NC(=O)[C@@H]2CCCN2C(=O)[C@@H]2C[C@@H]3CCCC[C@@H]3N2C(=O)[C@H](N)CCCNC(=N)N)C(N)=O)cc1` [rOicPaF(p-Me), D-Arg-Oic-Pro-D-Ala-Phe(p-Me)] (HELM PEPTIDE1{[dR].[O=C([C@@H]1C[C@@H]2CCCC[C@@H]2N1[*:1])[*:2]].P.[dA].[Cc1ccc(C[C@H](N[*:1])C(=O)[*:2])cc1].[am]}$$$$V2.0): the “peptide concentration with significant prolongation (p<0.05) of the PT” value in data set [1] was 1.56 µM. For the same compound, the “time to occlusion of the mouse right carotid artery” value with C57BL6 mice was “significant prolongation; also recorded: progressively prolonged”.
As to `N=C(N)NCCC[C@@H](N)C(=O)N1[C@H](C(=O)N2CCC[C@H]2C(=O)NCC(=O)N[C@@H](Cc2ccccc2)C(N)=O)C[C@@H]2CCCC[C@@H]21` [rOicPGF, D-Arg-Oic-Pro-Gly-Phe, reference compound] (HELM PEPTIDE1{[dR].[O=C([C@@H]1C[C@@H]2CCCC[C@@H]2N1[*:1])[*:2]].P.G.F.[am]}$$$$V2.0), the half-life at 0.1 mg/ml in data set [2] (37° C., read-out: t1/2 (min) Intestinal Perfusate) was 111 min; in data set [2] (read-out: t1/2 in intestinal perfusate (converted)), 120 min.

(Values after US7879792B2, “Synthetic peptide inhibitors of thrombin and thrombin activation of protease activated receptors 1 and 4” (The Regents of the University of Michigan, priority 2005, dated 2011).)
